Values quoted from earlier work, collected in US20210275440A1, “MICROBEAD COMPOSITIONS AND METHODS FOR DELIVERING AN AGENT” (THE UNIVERSITY OF MEMPHIS RESEARCH FOUNDATION, priority 2016, published 2021).

Details: intra-articular administration

CN[C@H](CC(C)C)C(=O)N[C@H]1C(=O)N[C@@H](CC(N)=O)C(=O)N[C@H]2C(=O)N[C@H]3C(=O)N[C@H](C(=O)N[C@H](C(=O)O)c4cc(O)cc(O)c4-c4cc3ccc4O)[C@H](O)c3ccc(c(Cl)c3)Oc3cc2cc(c3O[C@@H]2O[C@H](CO)[C@@H](O)[C@H](O)[C@H]2O[C@H]2C[C@](C)(N)[C@H](O)[C@H](C)O2)Oc2ccc(cc2Cl)[C@H]1O (atropisomer, axis not shown) [vancomycin]
half-life: 3 h | time therapeutic levels in joint and serum were maintained: 24 h
